Measurements as given in patent publication US9187556B2, “SEMA5B peptides and vaccines including the same” (OncoTherapy Science, Inc., priority 2011, dated 2015).

Columns and labels:
peptide-pulsed T2 cells [1] = assay: IFN-gamma ELISPOT assay on CTLs induced with peptide-pulsed DCs; format: cell-based, human; conditions: CTLs from HLA-A*0201 positive donor, compared to control wells
Text: Monocyte-derived dendritic cells (DCs) were used as antigen-presenting cells to induce cytotoxic T lymphocyte (CTL) responses against peptides presented on human leukocyte antigen (HLA). DCs were generated in vitro as described elsewhere (Nakahara S et al., Cancer Res 2003 Jul. 15, 63(14): 4112-8). Specifically, peripheral blood mononuclear cells isolated from a normal volunteer (HLA-A*0201 positive) by Ficoll-Paque plus (Pharmacia) solution were separated by adherence to a plastic tissue culture dish (Becton Dickinson) so as to enrich them as the monocyte fraction. The monocyte-enriched population was cultured in the presence of 1000 U/ml of granulocyte-macrophage colony-stimulating factor (R&D System) and 1000 U/ml of interleukin (IL)-4 (R&D System) in AIM-V Medium (Invitrogen) containing 2% heat-inactivated autologous serum (AS). After 7 days of culture, the cytokine-induced DCs were pulsed with 20 micro g/ml of each of the synthesized peptides in the presence of 3 micro g/ml of beta 2-microglobulin for 3 hr at 37 degree C. in AIM-V Medium. The generated cells appeared to express DC-associated molecules, such as CD80, CD83, CD86 and HLA class II, on their cell surfaces (data not shown). These peptide-pulsed DCs were then inactivated by X ray-irradiated (20 Gy) and mixed at a 1:20 ratio with autologous CD8+ T cells, obtained by positive selection with CD8 Positive Isolation Kit (Dynal). These cultures were set up in 48-well plates (Corning); each well contained 1.5×10^4 peptide-pulsed DCs, 3×10^5 CD8+ T cells and 10 ng/ml of IL-7 (R&D System) in 0.5 ml of AIM-V/2% AS medium. Three days later, these cultures were supplemented with IL-2 (CHIRON) to a final concentration of 20 IU/ml. On day 7 and 14, the T cells were further stimulated with the autologous peptide-pulsed DCs. The DCs were prepared each time by the same way described above. CTLs were tested against peptide-pulsed T2 cells after the 3rd round of peptide stimulation on day 21 (Tanaka H et al., Br J Cancer 2001 Jan. 5, 84(1): 94-9; Umano Y et al., Br J Cancer 2001 Apr. 20, 84(8): 1052-7; Uchida N et al., Clin Cancer Res 2004 December 15, 10(24): 8577-86; Suda T et al., Cancer Sci 2006 May, 97(5): 411-9; Watanabe T et al., Cancer Sci 2005 August, 96(8): 498-506).
(§1) To examine specific CTL activity, interferon(IFN)-gamma enzyme-linked immunospot (ELISPOT) assay and IFN-gamma enzyme-linked immunosorbent assay (ELISA) were performed. Peptide-pulsed T2 (1×10^4/well) was prepared as stimulator cells. Cultured cells in 48-well plate, CTL lines and CTL clones were used as responder cells. IFN-gamma ELISPOT assay and IFN-gamma ELISA assay were performed under manufacture procedure.

peptide-pulsed T2 cells [2] = assay: IFN-gamma ELISA of CTL clones established by limiting dilution; format: cell-based, human; conditions: target cells pulsed with each peptide
Description: The dilutions were made to have 0.3, 1, and 3 CTLs/well in 96 round-bottomed micro titer plate (Nalge Nunc International). CTLs were cultured with 1×10^4 cells/well of 2 kinds of human B-lymphoblastoid cell lines, 30 ng/ml of anti-CD3 antibody, and 125 U/ml of IL-2 in a total of 150 micro 1/well of AIM-VMedium containing 5% AS. 50 micro 1/well of IL-2 were added to the medium 10 days later so to reach a final concentration of 125 U/ml IL-2. CTL activity was tested on the 14th day, and CTL clones were expanded using the same method as described above (Uchida N et al., Clin Cancer Res 2004 Dec. 15, 10(24): 8577-86; Suda T et al., Cancer Sci 2006 May, 97(5): 411-9; Watanabe T et al., Cancer Sci 2005 August, 96(8): 498-506).
as §1

peptide-pulsed T2 cells [3] = assay: IFN-gamma ELISA of expanded CTL lines; format: cell-based, human; conditions: target cells pulsed with corresponding peptide vs without peptide pulse
Description: CTLs were expanded in culture using the method similar to the one described by Riddell et al. (Walter E A et al., N Engl J Med 1995 Oct. 19, 333(16): 1038-44; Riddell S R et al., Nat Med 1996 February, 2(2): 216-23). A total of 5×10^4 CTLs were suspended in 25 ml of AIM-V/5% AS medium with 2 kinds of human B-lymphoblastoid cell lines, inactivated by Mitomycin C, in the presence of 40 ng/ml of anti-CD3 monoclonal antibody (Pharmingen). One day after initiating the cultures, 120 IU/ml of IL-2 were added to the cultures. The cultures were fed with fresh AIM-V/5% AS medium containing 30 IU/ml of IL-2 on days 5, 8 and 11 (Tanaka H et al., Br J Cancer 2001 Jan. 5, 84(1): 94-9; Umano Y et al., Br J Cancer 2001 Apr. 20, 84(8): 1052-7; Uchida N et al., Clin Cancer Res 2004 Dec. 15, 10(24): 8577-86; Suda T et al., Cancer Sci 2006 May, 97(5): 411-9; Watanabe T et al., Cancer Sci 2005 August, 96(8): 498-506).
as §1

[4] = system: COS7 cells transfected with SEMA5B and HLA-A*0201; assay: Specific CTL activity against target cells expressing SEMA5B and HLA-A*0201; format: cell-based, African green monkey
Description: as §1
The cDNA encoding an open reading frame of target genes or HLA-A*0201 was amplified by PCR. The PCR-amplified product was cloned into expression vector. The plasmids were transfected into COS7, which is HLA-A*0201-null cell line, using lipofectamine 2000 (Invitrogen) according to the manufacturer's recommended procedures. After 2 days from transfection, the transfected cells were harvested with versene (Invitrogen) and used as the stimulator cells (5×10^4 cells/well) for CTL activity assay.

Row | Sequence | Peptide-specific CTL activity (IFN-gamma production) (peptide-pulsed T2 cells [1]) | IFN-gamma production of CTL clones (peptide-pulsed T2 cells [2]) | IFN-gamma production of CTL lines (peptide-pulsed T2 cells [3]) | CTL activity of CTL line against COS7 cells expressing both SEMA5B and HLA-A*0201 ([4]; COS7 transfected with both full length SEMA5B and HLA-A*0201) | CTL activity of CTL line against control COS7 cells ([4]; COS7 transfected with either full length SEMA5B or HLA-A*0201)
1 | GLLTLAVYL [SEQ ID NO: 7, 9 mer peptide derived from SEMA5B, start position 1049] | potent IFN-gamma production | – | – | – | –
2 | MVLAGPLAV [SEQ ID NO: 8, 9 mer peptide derived from SEMA5B, start position 59; typical negative case] | not shown specific IFN-gamma production | – | – | – | –
3 | LLLPSLTLLV [SEQ ID NO: 27, 10 mer peptide derived from SEMA5B, start position 69] | potent IFN-gamma production | Potent IFN-gamma production | potent IFN-gamma production | potent CTL activity | no significant specific CTL activity was detected
4 | LIYGVFTTNV [SEQ ID NO: 34, 10 mer peptide derived from SEMA5B, start position 370] | potent IFN-gamma production | Potent IFN-gamma production | potent IFN-gamma production | – | –
5 | LLPSLTLLV [SEQ ID NO: 5, 9 mer peptide derived from SEMA5B, start position 70] | potent IFN-gamma production | Potent IFN-gamma production | potent IFN-gamma production | – | –
